Experiments:
[1] = tested on: blood glucose levels; assay: Bioactivity of insulin released from NPs, subcutaneous injection; assay type: in vivo, Sprague Dawley rats; settings: 2 U/kg subcutaneous, insulin released in PBS 2 hours at 37° C.
Method: To study the bioactivity of insulin after the preparation and drug release process, NPs were allowed to release insulin in PBS for 2 hours at 37° C. Then the NPs were isolated from the released insulin by ultra-centrifugation. Sprague Dawley rats (Dashuo Laboratory Animal Center) (n=4 per group) were fasted overnight, and then administered the released insulin (2 U/kg) or original free insulin (2 U/kg) and saline, by subcutaneous injection. Blood glucose levels were measured with the AlphaTRAK blood glucose monitoring system (Abbott).

[2] = tested on: blood glucose levels; assay: Hypoglycemic effect of oral insulin-loaded NPs in diabetic mice; assay type: in vivo, BALB/c mice; settings: subcutaneous injection
Method: For the evaluation of in vivo efficacy in diabetic animals, insulin-dependent (type 1) diabetes was induced in male BALB/c mice (Charles River Laboratories) by a single injection of streptozotocin solution ([…]) as previously described (see, e.g., 7. S. Arora, S. K. Ojha, D. Vohora, Global J. Pharmacol. 2009, 3, 81-84). Animals were considered to be diabetic if they had fasting glycemia higher than 16.0 mM one week after the injection. The diabetic mice (n=6 per group) were fasted overnight and then administered different samples by gavage, including saline, free insulin, Tf-coated NPs (PEA75), and BSA-coated NPs (PEA75) (insulin dose of 50 U/kg, 1.5 mL per 100 g of body weight). One group of animals was administered an insulin solution (5 U/kg) by subcutaneous (SC) injection. The blood glucose levels were measured as described above, and the pharmacological availability for different formulations was calculated relative to the SC route.

[3] = tested on: blood glucose levels; assay: Hypoglycemic effect of oral insulin-loaded NPs in normal rats; assay type: in vivo, Sprague Dawley rats; settings: subcutaneous injection
Method: Sprague Dawley rats (n=6 per group) were fasted overnight before experiments, but allowed free access to water. The animals were administered Tf-coated NPs and BSA-coated NPs (PEA75) in PBS (1.5 mL per 100 g of body weight), at an insulin dose of 50 U/kg, by oral gavage. Tf-coated NPs were tested with four different formulations, including PEA50 NPs, PEA75 NPs, PLGA-PEA50 NPs, and PLGA-PEA75 NPs. As controls, saline and free insulin (50 U/kg) were administered by oral gavage. One group of animals was administered with insulin solution (2 U/kg) by subcutaneous (SC) injection, which was used for the calculation of relative pharmacological availability (PA %). The blood glucose levels were measured as described above, and the pharmacological availability for different formulations was calculated relative to the SC route. […] All four tested Tf-coated NPs elicited a significant hypoglycemic response, reducing glucose during the first 1-6 hours after administration as shown in Table 3.

Substance | Hypoglycemic response of released insulin [1] | AAC (area above the serum glucose concentration curve) ([2]; 5 U/kg) | Tmax ([2]; 5 U/kg) | PA (relative pharmacological availability) ([2]; 5 U/kg (reference route)) | AAC (area above the serum glucose concentration curve) ([3]; 2 U/kg) | Tmax ([3]; 2 U/kg) | PA (relative pharmacological availability) ([3]; 2 U/kg (reference route))
released insulin: insulin released from the NPs in PBS for 2 hours at 37° C. and separated by ultra-centrifugation | hypoglycemic response analogous to an equivalent dose of free insulin solution |  |  |  |  |  | 
insulin [Free Insulin] |  | 227.5 %*h | 60 min | 100.0% | 92.8 %*h | 30 min | 100.0%

Source: patent US11123304B2, “Nanoparticles having poly(ester amide) polymer cores as drug delivery vehicles” (The Brigham and Women's Hospital, Inc., priority 2017, dated 2021)
